Data on three molecules can be found in patent publication US4528290A, “Stimulating dopamine D-1 receptors” (Eli Lilly and Company, priority 1984, dated 1985).

The experiment has as its system dopamine D-1 receptors (cyclic AMP efflux, striatal tissue). As to the kind of experiment: tissue or blood. Here is the method:
A second, particularly sensitive indicator of D-1 agonist activity is the determination of the cyclic AMP efflux in tissue slices using a procedure based on Stoof and Kebabian (loc. cit). In this procedure, striatal tissue is dissected from rat brains and chopped into 0.3 mm.×[…]. fragments. The tissue fragments are suspended in the appropriate buffer system (Earl's balanced salt solution, for example) and the suspension is continuously aerated with 95:5 O2 /CO2 while being maintained at 37° C. Just prior to use, the tissue fragments are transferred to fresh media to which is added bovine serum albumin (2.5 mg./ml.) and 3-isobutyl-1-methylxanthine (1 millimolar) to block degradation of cyclic AMP. The tissue fragments are incubated in buffer without drugs and are then transferred to the same media with added drug. Aliquots of incubation media, with and without drugs, are assayed for cyclic AMP concentration by a specific radioimmunoassay. The effect of the drug or drugs on efflux is expressed as a percentage of the resting efflux. The following medium was employed:
Sulpiride is known to be an antagonist on pituitary D-2 receptors. Addition of sulpiride to a test system, such as that described above, blocks any D-2 effect of a drug in reducing cyclic AMP production.

On to `CCN1CCCC1CNC(=O)c1cc(S(N)(=O)=O)ccc1OC` (stereo not shown) [sulpiride], for which, where the note is “sulpiride 10^-6 M”, the “effect of sulpiride on the lowering of the SKF38393 cyclic AMP increase by the trans-(-)-enantiomer” value is on record as “suppressed”. The “effect of sulpiride on the increase in cyclic AMP efflux caused by A” value (sulpiride 10^-6 M with A 5 × 10^-7 M) was “no effect on the increase in cyclic AMP efflux”.
Turning to `CCCN1CCC[C@@H]2Cc3[nH]ncc3C[C@H]21` [4aR, 8aR enantiomer, 4aR,8aR-5-n-propyl-4,4a,5,6,7,8,8a,9-octahydro-1H(and 2H)-pyrazolo[4,3-g]-quinoline], the “cyclic AMP production increase by SKF38393 after addition of the compound” value (compound at 0.5×10^-6 M added to SKF38393 10^-6 molar (145% alone)) amounted to 42%.
For the molecule `Oc1cc2c(cc1O)C(c1ccccc1)CNCC2` (stereo not shown) [SKF38393, 1,2,3,4-tetrahydro-7,8-dihydroxy-1-phenyl-1H-3-benzazepine], the activation at 1 µM (Rattus norvegicus, read-out: increase of cyclic AMP production) is 145%.
